Laboratory results: the NIST ThermoML archive (doi:10.1016/j.jct.2008.01.006)

Settings: Liquid, Vibrating tube method

CCCCCCCN [1-heptanamine]
mass density [kg/m3]
Settings	293.15 K	303.15 K	313.15 K	323.15 K	333.15 K	343.15 K	353.15 K
100 kPa	774.9	766.5	758.2	749.8	741.4	732.6	724.4
10000 kPa	781.1	773.6	765.4	757.6	749.5	741.7	733.7
20000 kPa	787.1	780	772	764.5	756.8	749.6	741.9
30000 kPa	792.6	785.8	778.2	771	763.4	756.7	749.3
40000 kPa	797.8	791.3	784	777	769.6	763.3	756.2
50000 kPa	802.7	796.5	789.3	782.6	775.5	769.4	762.6
60000 kPa	807.4	801.3	794.5	787.8	780.9	775.1	768.7
70000 kPa	811.8	806	799.2	792.7	786.2	780.4	774.2
80000 kPa	816.1	810.4	803.7	797.5	791.1	785.5	779.5
90000 kPa	820.2	814.6	808	802	795.6	790.3	784.3
100000 kPa	824	818.7	812.2	806.3	800	794.9	789.2
110000 kPa	827.8	822.5	816.2	810.6	804.3	799.2	793.7
120000 kPa	831.5	826.2	820.1	814.5	808.4	803.3	797.9
130000 kPa	835	829.9	823.8	818.4	812.4	807.4	802.1
140000 kPa	838.3	833.3	827.4	822.1	816.2	811.3	806.1
